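96-well plates; 48 h exposure; 5 concentrations. Endpoints by linear interpolation between flanking doses. Not reached: highest tested concentration assigned. Here, GI50 denotes the concentration required for 50% inhibition of growth.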 The source made the active and inactive calls. Rule as the data show it: active = GI50 up to about 1.1 µM and inactive = higher.
What was measured:
Assay in all cases: NCI tumour cell line growth inhibition, 48 h
[1] = test system: 786-0
[2] = test system: CAKI-1
[3] = test system: DU-145
[4] = test system: HCT-116
[5] = test system: HCT-15
[6] = test system: HT-29
[7] = test system: K562
[8] = test system: LOX IMVI
[9] = test system: MCF7
[10] = test system: MDA-MB-231
[11] = test system: MDA-MB-435
[12] = test system: MOLT-4
[13] = test system: NCI/ADR-RES
[14] = test system: OVCAR-3
[15] = test system: OVCAR-4
[16] = test system: OVCAR-8
[17] = test system: RXF 393
[18] = test system: SF-295
[19] = test system: SF-539
[20] = test system: SNB-19

Row | Structure (SMILES) | GI50 [1] | GI50 [2] | GI50 [3] | GI50 [4] | GI50 [5] [µM] | GI50 [6] | GI50 [7] | GI50 [8] | GI50 [9] | GI50 [10] | GI50 [11] | GI50 [12] | GI50 [13] | GI50 [14] | GI50 [15] | GI50 [16] | GI50 [17] | GI50 [18] | GI50 [19] | GI50 [20]
1 | N#Cc1c(N)[nH]c2ccc(Sc3ccccc3)cc12 | 0.152 µM (active) | 0.216 µM (active) | 0.721 µM (active) | 0.111 µM (active) | 0.098 | 0.21 µM (active) | < 0.0635 µM (active) | 0.213 µM (active) | < 0.0711 µM (active) | 0.881 µM (active) | < 0.107 µM (active) | 0.143 µM (active) | 0.101 µM (active) | 0.215 µM (active) | 0.675 µM (active) | 0.358 µM (active) | 0.208 µM (active) | 0.23 µM (active) | 0.234 µM (active) | 0.46 µM (active)
2 | C=CCCC1(CC(Sc2ccccc2)P(=O)(c2ccccc2)c2ccccc2)OCCO1 (centres undefined) | > 10 µM (inactive) | > 10 µM (inactive) | > 10 µM (inactive) | > 10 µM (inactive) | > 10 | > 10 µM (inactive) | > 10 µM (inactive) | > 10 µM (inactive) | > 10 µM (inactive) | > 10 µM (inactive) | > 10 µM (inactive) | > 10 µM (inactive) | > 10 µM (inactive) | > 10 µM (inactive) | > 10 µM (inactive) | > 10 µM (inactive) | > 10 µM (inactive) | > 10 µM (inactive) | > 10 µM (inactive) | > 10 µM (inactive)
3 | CCCCCCCCCCCCCCCCCCOC(COP(=O)(O)OCC1OC(n2cc(F)c(=O)[nH]c2=O)CC1O)COP(=O)(O)OCC1OC(n2ccc(N)nc2=O)C(O)C1O (centres undefined) | 2.82 µM (inactive) | 13.2 µM (inactive) | 3.33 µM (inactive) | 6.19 µM (inactive) | 31.4 | 18.2 µM (inactive) | > 32.2 µM (inactive) | 1.14 µM (inactive) | 2.37 µM (inactive) | > 100 µM (inactive) | 19.5 µM (inactive) | 1.72 µM (inactive) | 6.49 µM (inactive) | > 100 µM (inactive) | 47.1 µM (inactive) | 4.51 µM (inactive) | 16.4 µM (inactive) | 2.58 µM (inactive) | 0.863 µM (active) | 6.46 µM (inactive)
4 | CCCCCCOc1ccc(C(=O)NO)cc1 | 3.68 µM (inactive) | 4.44 µM (inactive) | 8.05 µM (inactive) | 8.53 µM (inactive) | 1.61 | 7.57 µM (inactive) | 5.22 µM (inactive) | 2.17 µM (inactive) | 25.8 µM (inactive) | 11 µM (inactive) | 9.68 µM (inactive) | 1.07 µM (active) | 3.08 µM (inactive) | 6.03 µM (inactive) | 5.74 µM (inactive) | 5.08 µM (inactive) | 11.3 µM (inactive) | 8.26 µM (inactive) | 11.3 µM (inactive) | 17.8 µM (inactive)
5 | O=c1c2cc([N+](=O)[O-])ccc2n2n1Cc1ccccc1CC2 | > 100 µM (inactive) | > 100 µM (inactive) | > 100 µM (inactive) | > 100 µM (inactive) | > 100 | > 100 µM (inactive) | > 100 µM (inactive) | > 100 µM (inactive) | > 100 µM (inactive) | > 100 µM (inactive) | > 100 µM (inactive) | > 100 µM (inactive) | > 100 µM (inactive) | > 100 µM (inactive) | > 100 µM (inactive) | > 100 µM (inactive) | > 100 µM (inactive) | > 100 µM (inactive) | > 100 µM (inactive) | > 100 µM (inactive)
6 | COC(=O)c1c(O)ccc2c1c1c(n2Cc2ccccc2)C(=O)c2ccccc2C1=O | 18.2 µM (inactive) | 18.7 µM (inactive) | 18.3 µM (inactive) | 14.2 µM (inactive) | 12.6 | 9.23 µM (inactive) | 11.8 µM (inactive) | 15.6 µM (inactive) | 12.1 µM (inactive) | 16.2 µM (inactive) | 13 µM (inactive) | 4.88 µM (inactive) | 12.6 µM (inactive) | 16.7 µM (inactive) | 12 µM (inactive) | 12.2 µM (inactive) | 14.1 µM (inactive) | 19.4 µM (inactive) | 15.6 µM (inactive) | 14.9 µM (inactive)
7 | CCCC1=C(OC)C(=O)c2c(C)cc(Cl)nc2C1=O | 2.37 µM (inactive) | 8.97 µM (inactive) | 15.1 µM (inactive) | 2.62 µM (inactive) | 3.05 | 4.3 µM (inactive) | 2.02 µM (inactive) | 2.01 µM (inactive) | 2.47 µM (inactive) | 5.53 µM (inactive) | 1.84 µM (inactive) | 1.55 µM (inactive) | 4.55 µM (inactive) | 2.81 µM (inactive) | 6.37 µM (inactive) | 8.89 µM (inactive) | 7.67 µM (inactive) | 14.7 µM (inactive) | 7.43 µM (inactive) | 14.7 µM (inactive)
8 | CC1=NNC(=O)[C@H]2[C@H]1CCC1[C@@H]2CC[C@]2(C)[C@@H](O)CC[C@@H]12 (some centres undefined) | > 100 µM (inactive) | > 100 µM (inactive) | > 100 µM (inactive) | > 100 µM (inactive) | > 100 | > 100 µM (inactive) | > 100 µM (inactive) | > 100 µM (inactive) | > 100 µM (inactive) | > 100 µM (inactive) | > 100 µM (inactive) | > 100 µM (inactive) | > 100 µM (inactive) | > 100 µM (inactive) | > 100 µM (inactive) | > 100 µM (inactive) | > 100 µM (inactive) | > 100 µM (inactive) | > 100 µM (inactive) | > 100 µM (inactive)
9 | CCCCCCCCCCCCCCCCCCNc1ccn(C2OC(COP(=O)(O)OCC3OC(n4cc(F)c(NCCCCCCCCCCCCCCCCCC)nc4=O)CC3O)C(O)C2O)c(=O)n1 (centres undefined) | > 100 µM (inactive) | > 100 µM (inactive) | > 100 µM (inactive) | > 100 µM (inactive) | > 100 | > 100 µM (inactive) | > 100 µM (inactive) | > 100 µM (inactive) | > 100 µM (inactive) | 78.9 µM (inactive) | > 100 µM (inactive) | > 100 µM (inactive) | > 100 µM (inactive) | > 100 µM (inactive) | > 100 µM (inactive) | 43.6 µM (inactive) | > 100 µM (inactive) | > 100 µM (inactive) | > 100 µM (inactive) | 66.8 µM (inactive)
10 | C=C(CCC(=O)N(CCc1c[nH]c2ccccc12)C(=O)c1ccccc1CSCC)C(=O)OC | 50 µM (inactive) | 84.1 µM (inactive) | > 95.5 µM (inactive) | 7.19 µM (inactive) | 26.5 | 19.5 µM (inactive) | 5.66 µM (inactive) | 29.2 µM (inactive) | 19.9 µM (inactive) | 30.1 µM (inactive) | 22 µM (inactive) | 4.02 µM (inactive) | 27.3 µM (inactive) | > 39.5 µM (inactive) | 50 µM (inactive) | 48.4 µM (inactive) | > 47.5 µM (inactive) | 24.7 µM (inactive) | > 88.5 µM (inactive) | 56.5 µM (inactive)
11 | O=C1Cc2c(-c3ccccc3)cc(-c3ccc4ccccc4c3)nc2-c2ccccc2N1 | 3.18 µM (inactive) | 3.25 µM (inactive) | 34.5 µM (inactive) | 8.45 µM (inactive) | 37.8 | 3.31 µM (inactive) | 2.39 µM (inactive) | 16.7 µM (inactive) | 13.9 µM (inactive) | 5.79 µM (inactive) | 17.2 µM (inactive) | > 100 µM (inactive) | 13.2 µM (inactive) | 8.05 µM (inactive) | 2.9 µM (inactive) | 1.46 µM (inactive) | 2.9 µM (inactive) | 17.8 µM (inactive) | 4.7 µM (inactive) | 3.06 µM (inactive)
12 | O=S(=O)(c1ccccc1)n1c(C(O)c2ccncc2)cc2ccccc21 (centres undefined) | 68.5 µM (inactive) | 58.9 µM (inactive) | 40.5 µM (inactive) | 43.1 µM (inactive) | 33.7 | 44.6 µM (inactive) | 31.6 µM (inactive) | 40.3 µM (inactive) | 20.9 µM (inactive) | 74.6 µM (inactive) | 36.3 µM (inactive) | 23.7 µM (inactive) | 35.2 µM (inactive) | 46.8 µM (inactive) | 31.8 µM (inactive) | 50.6 µM (inactive) | 48.2 µM (inactive) | 48.5 µM (inactive) | > 100 µM (inactive) | 50 µM (inactive)
13 | CCC(C)N1CN(c2ccccc2)C2(CCN(CCCC(=O)c3ccc(F)cc3)CC2)C1=O (centres undefined) | > 100 µM (inactive) | 2.25 µM (inactive) | 0.927 µM (active) | 0.697 µM (active) | 5.33 | 0.429 µM (active) | 9.18 µM (inactive) | 2.74 µM (inactive) | 0.381 µM (active) | 10.8 µM (inactive) | 13.9 µM (inactive) | 3.92 µM (inactive) | 83 µM (inactive) | 11.9 µM (inactive) | 3.03 µM (inactive) | > 10 µM (inactive) | 14.2 µM (inactive) | 4.55 µM (inactive) | 7.71 µM (inactive) | –
14 | COc1ccc(/C=C2\C(=O)N(C3OC(COC(C)=O)C(OC(C)=O)C(OC(C)=O)C3OC(C)=O)c3ccccc3N=C2N)cc1 (centres undefined) | 17.5 µM (inactive) | 31.4 µM (inactive) | 25.7 µM (inactive) | 19.7 µM (inactive) | 12.9 | 18.8 µM (inactive) | 11.9 µM (inactive) | 24.5 µM (inactive) | 19.1 µM (inactive) | 43.5 µM (inactive) | 4.65 µM (inactive) | 18.3 µM (inactive) | 20.5 µM (inactive) | 23.2 µM (inactive) | 33.5 µM (inactive) | 19.4 µM (inactive) | 21.8 µM (inactive) | 21.9 µM (inactive) | 9.06 µM (inactive) | 42.7 µM (inactive)
